“Also recorded” adds a separate entry of the source.
What was measured:
[1] = system: HCV replicon RNA in Huh-luc/neo-ET cells; experiment: replicon RNA copy number by quantitative RT-PCR; assay type: cell-based, hepatitis C virus; settings: 72 h, normalized to total RNA
[2] = system: HMGCR; experiment: HMGCR protein expression by western blot; assay type: cell-based, human; settings: Huh-7 cells, 16 h
[3] = system: HCV genotype 1b subgenomic replicon in Huh-luc/neo-ET cells; experiment: cHTS luciferase assay; assay type: cell-based, hepatitis C virus; settings: for effect on replicon replication (in words): single agent, 48 h luciferase
[4] = system: Huh-7 cells; experiment: host proliferation counterscreen measuring cellular ATP levels; assay type: cell-based, human; settings: 48 h
[5] = ref Pyrah et al, 2001; Cenedella et al, 2004; cited from earlier work

Structure (SMILES)	effect on replicon replication (in words) [3]	effect on host cell ATP levels (in words) [4]	also measured
C=C(CC[C@]12O[C@H](C(=O)O)[C@@](O)(C(=O)O)[C@](C(=O)O)(O1)[C@H](OC(=O)/C=C/[C@@H](C)C[C@@H](C)CC)[C@H]2O)[C@@H](OC(C)=O)[C@H](C)Cc1ccccc1 [Squalestatin]	strongly promoted replicon replication		replicon RNA copy number, RT-qPCR (in words) [1]: proviral effects; HMGCR protein expression (in words) [2]: overexpression of HMGCR
NCCCC(O)(P(=O)(O)O)P(=O)(O)O [Alendronate]		reduce host cell ATP levels	
CC(C)CCC[C@@H](C)[C@H]1CC(=O)C2=C3CC[C@H]4C[C@@H](O)CC[C@]4(C)[C@H]3CC[C@@]21C [Colestolone]	inhibited HCV replication with marginal impact on host cell ATP levels		
CC(Cc1ccc(C(C)(C)C)cc1)CN1C[C@@H](C)O[C@@H](C)C1 (stereo partly shown) [Fenpropimorph]	inhibited HCV replication with marginal impact on host cell ATP levels		
CC(C)=CCC/C(C)=C/CC/C(C)=C/CO [Farnesol]	strongly promoted replicon replication		
CCN(CC)CCOc1ccc(C(=C(Cl)c2ccccc2)c2ccccc2)cc1 [Clomiphene]		reduce host cell ATP levels	
CCC(C)(C)c1ccc(CC(C)CN2C[C@@H](C)O[C@@H](C)C2)cc1 (stereo partly shown) [Amorolfine]	inhibited HCV replication with marginal impact on host cell ATP levels		
CCOP(=O)(OCC)C(=Cc1cc(C(C)(C)C)c(O)c(C(C)(C)C)c1)P(=O)(OCC)OCC [SR-12813]	strongly promoted replicon replication		
CC(C)n1c(/C=C/C(O)CC(O)CC(=O)O)c(-c2ccc(F)cc2)c2ccccc21 (stereo not shown) [fluvastatin]	proviral effect		
COC(=O)[C@H](CC(C)C)NC(=O)c1ccc(NC[C@@H](N)CS)cc1-c1ccccc1 [GGTI-286]	antiviral activity		
CCC(C)(C)C(=O)O[C@H]1C[C@@H](C)C=C2C=C[C@H](C)[C@H](CC[C@@H]3C[C@@H](O)CC(=O)O3)[C@H]21 [Simvastatin]	proviral effect; also recorded: increased HCV replication	correlate with a reduction in host cell ATP levels	replicon RNA copy number, RT-qPCR (in words) [1]: proviral effects; HMGCR protein expression (in words) [2]: apparent overexpression of HMGCR
CCCCCCCCCCCCCCOc1ccc(C(=O)O)o1 [TOFA]		modest depletion of ATP at most antiviral concentrations	
CC(C)N1CCN(c2ccc(OCC3COC(Cn4cncn4)(c4ccc(Cl)cc4Cl)O3)cc2)CC1 (stereo not shown) [Terconazole]		reduce host cell ATP levels	
CCN(CC)CCO[C@H]1CC[C@@]2(C)C(=CC[C@@H]3[C@@H]2CC[C@]2(C)C(=O)CC[C@@H]32)C1.Cl [U18666A]	inhibited HCV replication with marginal impact on host cell ATP levels		HMGCR protein expression (in words) [2]: overexpression of HMGCR; side effects [5]: rapid induction of cataracts and irreversible lens damage in animals; IC50 of HCV replication inhibition (in words) ([3]; 48 h): nM range

Reference: publication PMC2913396 (Molecular Systems Biology, 2010)
